# Assay results from US20090076067A1, “PHARMACEUTICAL COMPOSITION COMPRISING AZARHODACYANINE COMPOUND AS ACTIVE INGREDIENT” (priority 2005, published 2009).
# Like-named read-outs stand apart in the source and are kept apart here.
# Assays:
# [1] = Rat L6 cell proliferation inhibition test; assay type: cell-based; settings: read-out: EC50 cytotoxicity L6
# Protocol: (§1) Rat-derived L6 cells (rat skeletal myoblast cell) were used for this test. […] The sample was cultured under CO2 concentration 5% and temperature 37° C. Either the composition of the invention or control was dissolved into DMSO, to prepare test solutions having predefined concentration.
# (§2) The samples were precultured until logarithmic growth phase was reached. Then the culture was transferred to each well in a 96-well culture plate, and either test solution containing test compound at predefined concentration or DSMO without compound was added. The test solution was duplicated.
# (§3) The plate was cultured in an incubator for 72 hours, to examine proliferation inhibition activity. The activity was examined as follows. Alamar Blue water solution 10 μL was added to each well, and culture was continued for 2 hours. Next, the culture plate was mounted on a fluorescence microplate reader (Spectramax Gemeni XS; Molecular Devices Corporation, U.S.), and irradiated with excitation wavelength 536 nm to determine fluorescence at 588 nm. The survival rate of L6 cells in the test solution sample and control sample was calculated.
# (§4) Proliferation inhibition rate(%)={(C−A)/(B−A)}×100
# (§5) A: Initial cell count B: Cell count in control after 3 days C: Cell count in test solution after 3 days
# [2] = tested on: Plasmodium Falciparum k1 strain; assay: Chloroquine-resistant tropical malaria protozoa proliferation inhibition screening test; assay type: cell-based; settings: for Selective toxicity: EC50 rat L6 cells / EC50 Chloroquine-resistant malaria protozoa; for EC50: Plasmodium falciparum
# Protocol: In this experiment, Plasmodium Falciparum k1 strain protozoa were used. The medium used in the experiment was filter-sterilized RPMI-1640 medium. To the medium human serum was added to achieve 5% concentration. The protozoa was cultured under condition of O2 concentration 3%, CO2 concentration 4%, N2 concentration 93%, and temperature 37° C.
# The cultured malaria infected red blood cells were collected by centrifugation, diluted with non-infected red blood cells, to achieve initial infection rate 0.15%. The hematocrit was 2.5%.
# To each well in a 96-well culture plate, 200 μL malaria infected culture was added, and either test solution containing test compound at predefined concentration or DMSO having no test compound was added. Each test solution was prepared in duplicate. After 48 hours culture under 37° C., hypoxanthine labeled with radioactive tritium (^3H) of 0.5 μCi was added to each well. After culturing under same condition for 24 hours, the product was collected on a glass fiber filter and washed. The intensity of radiation was measured by Beta plate liquid scintillation counter (Wallac Inc.), to determine malaria protozoa infection rate in test compound samples and control samples.
# Using the malaria protozoa infection rate, the proliferation inhibition rate was calculated according to the following equation to determine 50% proliferation inhibition concentration (EC50).
# (§6) Proliferation inhibition rate(%)={1−(b−a)/(c−a)}×100
# (§7) a: initial infection rate b: infection rate of test compound solution c: infection rate of the control
# [3] = tested on: Trypanosoma cruzi (Tulahuen C2C4 strain); assay: American trypanosoma protozoa proliferation inhibition screening test; assay type: cell-based; settings: Tulahuen C2C4 strain in rat L6 cells, 96 hours, CPRG/Nonidet
# Protocol: In this experiment, amastigote and trypomastigote of Trypanosoma cruzi (Tulahuen C2C4 strain) infected to rat L6 cells were used. The medium used in the experiment was prepared as follows: to RPMI 1640 medium containing L6 cells, L-glutamine (200 mM) and fetal bovine serum was added to achieve concentration of 1% and 10%, respectively. The culture was conducted under CO2 concentration 5% and temperature 37° C.
# Either the compound of the invention or a positive control (benznidazole) was dissolved into DMSO to prepare test solution having predefined concentration. To each well in a 96-well culture plate, medium containing 5×10^3 protozoa was added and precultured for 48 hours. After replacing the medium, either the test solution containing compound of the invention in predefined concentration or DMSO without compound was added. The test solution was duplicated.
# The plate was cultured in an incubator for 96 hours, and the proliferation inhibition activity was examined. The activity was determined as follows. To each well, 50 μL CPRG/Nonidet was added, then left for 2 to 6 hours. Then the culture plate was mounted on an absorption microplate reader to determine absorption at 540 nm. The trypanosoma infection rate of the sample containing the test compound and that of the control sample was calculated.
# (§8) Using the protozoa infection rate thus obtained, the proliferation inhibition rate was calculated according to the following equation to determine 50% proliferation inhibition concentration (EC50).
# as §6
# (§9) a: initial infection rate b: infection rate of the test compound solution c: infection rate of the control
# [4] = tested on: Plasmodium berghei NK 65 strain; assay: animal or person; assay type: in vivo; settings: for Survival days (mean survival days, treatment group minus control group) / Recovery Rate (suppression): dose 25 mg/kg/d intraperitoneally, 4 days; for Recovery Rate (suppression): P. berghei infected ICR mice
# Description: For a test to evaluate therapeutic effect of the compound, 4-day suppressive test which is commonly used for in vivo test to evaluate activity of anti-malaria compound was used. In this experiment, rodent malaria protozoa (Plasmodium berghei NK 65 strain) were used. The infected blood was collected from 5-weeks age (SPF) ICR strain male mouse which were infected intraperitoneally and successively cultured. From the caudal vein of the infected mouse, blood was collected to calculate infection rate. After confirming that infection rate was adequately elevated (10% to 20% infection), the malaria infected blood was collected from the heart of the mouse. The infection rate and count of the red blood cells (cells/mL) were calculated. The infected red blood cell was diluted with PBS buffer to achieve […] protozoa per 0.2 mL dose. The infected cells were injected to the caudal vein of uninfected mouse (ICR strain, male, 5-weeks age) to cause infection. Five mice were made into one group, and the test compound was administered in predefined concentration. From 2 hours after infection, the compound was administered every 24 hours for straight 4 days.
# The compound of the invention to be used in this test was dissolved in saline (Otsuka Pharmaceutical Co., Ltd.) to obtain test solution of predefined concentration. When the compound was not dissolved in saline, it was dissolved in SSV (saline containing 0.5% sodium=carboxymethyl cellulose, 0.5% benzyl alcohol, 0.4% Tween 80) to prepare test solution. For the control group (non-treatment group), only saline (Otsuka) was administered. Positive controls S-1 to S-5 were dissolved in saline (Otsuka) or SSV in predetermined concentration to prepare test solution. When the compound was not dissolved in saline, it was dissolved in SSV. After measuring weight of each mouse, the dose for each mouse was calculated to achieve 5.0 to 40 mg concentration for weight1 kg.
# Five mice were made into one group, and the test compound was administered intraperitoneally at predefined concentration. From 2 hours after infection, the compound was administered every 24 hours for straight 4 days. Subsequent to the 24 hours after last treatment, blood was collected from the tail of the mouse to prepare thin layer smear in order to count malaria protozoa infection in the treatment group and the control group under microscope. The mice showing maximum value and minimum value were excluded from the average calculation (average was calculated for three mice), to determine malaria protozoa infection rate (Parasitemia).
# Using malaria protozoa infection rate thus calculated, recovery rate obtained from the test compound (suppression) was determined.
# Recovery rate: suppression(%)=(b−a)/b×100 a: Protozoa infection rate in the treatment group b: Protozoa infection rate in the control group Mean survival days: MSD(day)=c−d c: Average days from the initial treatment (date of malaria infection) to the date of death for the treatment group (5 mice) d: Average days from the date of malaria infection to the date of death for the non-treatment (control) group (5 mice) […]
# Tables 5 to 7 illustrate the recovery rate (%) and survival days (day) of malaria infected mice treated with intraperitoneal injection of the test compound and the control compound at predefined concentration. The meaning of symbols in the table is as follows.
# [5] = tested on: Rat-derived L6 cells (rat skeletal myoblast cell); assay: Rat L6 cell proliferation inhibition test; assay type: cell-based; settings: Alamar Blue
# Protocol: as §1, §2, §3, §4, §5
# [6] = tested on: Leishmania donovani (MHOM/ET/67/L82 strain); assay: Leishmania protozoa proliferation inhibition screening test; assay type: cell-based; settings: amastigote, 72 hours, Alamar blue
# Protocol: In this experiment, Leishmania donovani (MHOM/ET/67/L82 strain) was used. The protozoa were successively cultured in Syrian Golden hamsters to obtain amastigote. The medium used in the experiment was SM medium having heat-treated fetal bovine serum 10% added, and pH prepared to 5.4. The culture was conducted under CO2 concentration 5% and temperature 37° C.
# Either the compound of the invention or a positive control (miltefosine) was dissolved into DMSO to prepare test solution having predefined concentration. To each well of a 96-well culture plate, medium containing predetermined number of protozoa was added and the culture was pre-treated. The concentration of amastigote was determined by CASY cell analyze system (Scharfe GMBH Co., Germany). Subsequently, either test solution containing compound of the invention in predefined concentration or DMSO without compound was added. The test solution was duplicated.
# The plate was cultured in an incubator for 72 hours, and the proliferation inhibition activity was examined. The activity was determined as follows. To each well, 10 μL Alamar blue aqueous solution was added, then cultured again for 2 hours. Then the culture plate was mounted on a fluorescence microplate reader (Spectramax Gemeni XS; Molecular Devices Corporation, U.S), and irradiated 536 nm excitation wavelength to determine […] at 588 nm. The leishmania infection rate of the sample containing the test compound and that of the control sample was calculated.
# as §8, §6, §7
# [7] = tested on: Trypanosoma brucei rhodensiense (STIB 900 strain); assay: African trypanosoma protozoa proliferation inhibition screening test; assay type: cell-based; settings: STIB 900 bloodstream form, 72 hours, Alamar blue
# Protocol: In this experiment, bloodstream form trypomastigote of Trypanosoma brucei rhodensiense (STIB 900 strain) was used. The medium used in the experiment was prepared as follows: to filter-sterilized MEM medium, 25 mM N-2-hydroxyethylpiperazine-2-ethane sulfonate (HEPES), 1 g/L glucose, 1% MEM nonessential amino acid, 0.2 mM 2-mercaptoethanol, 2 mM pyruvic calcium salt, 0.1 mM hypoxanthine, and 15% heat-treated horse serum were added. The protozoa was cultured under atmosphere of CO2 concentration 5% and temperature 37° C.
# Either the compound of the invention or a positive control (melarsoprol) was dissolved into dimethylsulfoxide (DMSO) to prepare test solution having predefined concentration. To each well in a 96-well culture plate, medium containing 8×10^3 protozoa, and either test solution containing the test compound at predefined concentration or DMSO without compound was added. Then medium was added to achieve 100 μL. The test solution was duplicated.
# The culture plate was cultured in an incubator for 72 hours, and the proliferation inhibition activity was examined. The activity was determined as follows. To each well, 10 μL Alamar blue water solution was added, then the plate was again cultured for 2 hours. Then the culture plate was mounted on a fluorescence microplate reader (Spectramax Gemeni XS; Molecular Devices Corporation, U.S.), and irradiated with 536 nm excitation wavelength to determine fluorescence at 588 nm. The trypanosoma infection rate of the sample containing the test composition and that of the control sample was calculated.
# as §8, §6, §9
# [8] = L6 cells (rat skeletal myoblasts), Table 1, Alamar Blue
# [9] = chloroquine-resistant K1 strain, 3H-hypoxanthine uptake, read-out: EC50 P. falciparum K1
# [10] = chloroquine-resistant K1 strain, 3H-hypoxanthine uptake
compound,measurement,setting,value
CCN1C(=O)/C(=c2\nc3c(s2)=CC=CN3C)S/C1=N\c1cccc[n+]1C.[Cl-] [Compound A-22],EC50 at 72 h,[1]; [8],> 90 µg/mL
same,Selective toxicity,[2],>782
same,EC50,[2]; [9],0.0115 µg/mL
"O=C(Cn1ccnc1[N+](=O)[O-])NCc1ccccc1 [Benznidazole, reference compound]",EC50,"[3]; Trypanosoma cruzi, read-out: EC50 Trypanosoma cruzi",0.87 µg/mL
CCn1c(=O)/c(=C2\SCCN2C)s/c1=C1\S/C(=N\c2scc[n+]2C)N(C(C)C)C1=O [Compound B-35],EC50 at 72 h,[1]; [8],21.8 µg/mL
same,inhibition in vivo at 25 mg/kg/day,"[4]; Plasmodium berghei, ip, 96 h, read-out: Recovery Rate (suppression)",63.5%
same,"Survival days (mean survival days, treatment group minus control group)",[4],3.5 days
same,Selective toxicity,[2],3630
same,EC50,[2]; [9],0.006 µg/mL
C=CCN1C(=O)/C(=c2/s/c(=C3/SCCN3C)c(=O)n2CC)S/C1=N\c1sc2cc(Cl)ccc2[n+]1C [Compound B-39],EC50 cytotoxicity L6,"[5]; Table 2, 72 hours",3.72 µg/mL
same,EC50 cytotoxicity L6,"[5]; Table 3, 72 hours",3.72 µg/mL
same,EC50 cytotoxicity L6,"[5]; Table 4, 72 hours",3.72 µg/mL
same,"Survival days (mean survival days, treatment group minus control group)",[4],4.5 days
same,Recovery Rate (suppression),[4],77.7%
same,EC50 Leishmania donovani,[6],0.049 µg/mL
same,EC50 Trypanosoma brucei rhod.,[7],0.141 µg/mL
same,EC50 Trypanosoma cruzi,[3],0.141 µg/mL
"CCCCCCCCCCCCCCCCOP(=O)([O-])OCC[N+](C)(C)C [Miltefosine, reference compound]",EC50,"[6]; Leishmania donovani, read-out: EC50 Leishmania donovani",0.11 µg/mL
CCn1c(=O)/c(=c2\nc3c(o2)=CC=CN3C)s/c1=C1\S/C(=N\c2scc[n+]2C)N(Cc2ccccc2)C1=O [Compound B-22],EC50 cytotoxicity L6,"[5]; Table 1, 72 hours",>90 µg/mL
same,"Survival days (mean survival days, treatment group minus control group)",[4],9.0 days
same,Recovery Rate (suppression),[4],72.4%
same,EC50 Trypanosoma brucei rhod.,[7],0.068 µg/mL
same,EC50 P. falciparum K1,[2]; [10],0.005 µg/mL
"CCN(CC)CCCC(C)Nc1ccnc2cc(Cl)ccc12 (stereo not shown) [Chloroquine, reference compound]",EC50 at 72 h,"[1]; Table 1, rat L6 cells, Alamar Blue",60 µg/mL
same,Selective toxicity,[2],1300
same,EC50,"[2]; K1, read-out: EC50 P. falciparum K1",0.047 µg/mL
CCN1C(=O)/C(=c2/s/c(=C3/C=CC=CN3C)c(=O)n2CC)S/C1=N\c1sc2cc(F)ccc2[n+]1C [Compound B-32],EC50 cytotoxicity L6,"[5]; Table 1, 72 hours",15.88 µg/mL
same,EC50 cytotoxicity L6,"[5]; Table 2, 72 hours",15.88 µg/mL
same,EC50 cytotoxicity L6,"[5]; Table 4, 72 hours",15.88 µg/mL
same,"Survival days (mean survival days, treatment group minus control group)",[4],4.8 days
same,Recovery Rate (suppression),[4],79.5%
same,EC50 Leishmania donovani,[6],0.2195 µg/mL
same,EC50 Trypanosoma brucei rhod.,[7],0.1585 µg/mL
same,EC50 P. falciparum K1,[2]; [10],0.0162 µg/mL
